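Each compound was tested at five concentrations against cells in 96-well plates for 48 hours. GI50 is the concentration that inhibits growth by half. TGI denotes the concentration required for complete inhibition of growth.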
Tests used:
Experiment in all cases: growth of human tumour cells (NCI), 48 h
[1] = system: HCT-15 colon
[2] = system: HOP-62 NSCLC
[3] = system: LOX IMVI melanoma
[4] = system: SK-MEL-28 melanoma
[5] = system: SR leukemia
[6] = system: T-47D breast
[7] = system: UACC-257 melanoma
[8] = system: HOP-92 NSCLC
[9] = system: MALME-3M melanoma
[10] = system: NCI-H226 lung

`Cc1ccnc(NC(=S)Nc2cccc(Cl)c2)c1` was tested, and the TGI [1] was over 100 µM, the TGI [2] was over 100 µM and the TGI [3] was over 100 µM. It also gave a TGI [4] of over 100 µM, a TGI [5] of over 100 µM and a TGI [6] of over 100 µM. It also gave a TGI [7] of over 100 µM.
With `CC(=O)c1ccc(N2CCN(C3=CC(=O)c4c(O)ccc(O)c4C3=O)CC2)cc1` the TGI [1] was 55.6 µM, the TGI [2] was over 100 µM and the TGI [8] was 79.2 µM. For the same compound, the TGI [9] was over 100 µM, the TGI [4] was over 100 µM and the TGI [5] was over 100 µM. For the same compound, the TGI [6] was over 100 µM and the TGI [7] was over 100 µM.
In the case of `Cc1occ2c1C(=O)CC1C2[C@@H](O)CC2C(C)(C)CCC[C@]12C` (stereo not given in full), the TGI [1] is reported as over 100 µM, the TGI [2] is reported as over 100 µM and the TGI [8] is reported as over 100 µM. For the same compound, the TGI [9] was over 100 µM, the TGI [10] was over 100 µM and the TGI [4] was over 100 µM. It also gave a TGI [5] of over 100 µM and a TGI [7] of over 100 µM.
In the case of `CN(C)C(=O)C(F)(F)C(c1ccc(Br)cc1)C1C(=O)N(C)C(=O)N(C)C1=O` (stereo not given), the TGI [1] is reported as over 100 µM, the TGI [2] is reported as over 100 µM and the TGI [8] is reported as over 100 µM. The TGI [3] was over 100 µM, the TGI [10] was over 100 µM and the TGI [4] was over 100 µM. It also gave a TGI [6] of over 100 µM and a TGI [7] of over 100 µM.
With `COc1cc(OC)c2c(O)c(S(=O)(=O)c3ccc(C)cc3)c(=O)oc2c1` the TGI [1] was over 100 µM, the TGI [8] was over 100 µM and the TGI [9] was over 100 µM. For the same compound, the TGI [10] was over 100 µM, the TGI [4] was over 100 µM and the TGI [5] was over 100 µM. The TGI [6] was over 100 µM and the TGI [7] was over 100 µM.
In the case of `COC(=O)C1=C(C)N(NC(=O)c2ccccc2)C2(O)CCCC(=O)C12C` (stereo not given), the TGI [1] is reported as over 100 µM, the TGI [8] is reported as over 100 µM and the TGI [3] is reported as over 100 µM. For the same compound, the TGI [9] was over 100 µM, the TGI [10] was over 100 µM and the TGI [4] was over 100 µM. The TGI [7] was over 100 µM.
Compound `[N-]=[N+]=NC[C@H]1OCO[C@H](CN=[N+]=[N-])[C@H]2OCCOCCOc3ccccc3OCCOCCO[C@@H]21` has a TGI [1] of over 100 µM, a TGI [2] of over 100 µM and a TGI [3] of over 100 µM. It also gave a TGI [9] of over 100 µM, a TGI [10] of over 100 µM and a TGI [4] of over 100 µM. For the same compound, the TGI [6] was over 100 µM and the TGI [7] was over 100 µM.
In the case of `C/C(=C\Cc1cc(O)ccc1O)CCc1c(C)c(O)c(O)c(C=O)c1C`, the TGI [1] is reported as over 100 µM, the TGI [8] is reported as 34.7 µM and the TGI [9] is reported as 80.2 µM. It also gave a TGI [10] of 98 µM, a TGI [4] of 48.5 µM and a TGI [5] of 51 µM.
`N#Cc1c(Nc2nc3ccccc3s2)c2ccccc2n2c1nc1ccccc12` showed a TGI [1] of over 100 µM, a TGI [2] of over 100 µM and a TGI [8] of over 100 µM. It also gave a TGI [3] of over 100 µM, a TGI [9] of over 100 µM and a TGI [4] of over 100 µM. For the same compound, the TGI [5] was over 100 µM, the TGI [6] was over 100 µM and the TGI [7] was over 100 µM.
`O=C1c2ccccc2-c2nc(-c3ccccc3)cc3c2c1nc1ccccc13` gave a TGI [1] of 28.5 µM, a TGI [2] of 47.2 µM and a TGI [3] of 10 µM. It also gave a TGI [9] of 12.8 µM, a TGI [10] of 54.5 µM and a TGI [4] of 22.9 µM. The TGI [5] was 11.9 µM, the TGI [6] was over 100 µM and the TGI [7] was 30.6 µM.
For `CN(/N=N/c1nc[nH]c1C(N)=O)C1CCCCC1`, the TGI [1] was over 100 µM, the TGI [2] was over 100 µM and the TGI [8] was over 100 µM. The TGI [3] was over 100 µM, the TGI [9] was over 100 µM and the TGI [10] was over 100 µM. The TGI [4] was over 100 µM, the TGI [5] was over 100 µM and the TGI [7] was over 100 µM.
`Oc1nc(N/N=C/c2ccccc2)[nH]c1/C=C1\C=Nc2ccccc21` gave a TGI [1] of over 100 µM, a TGI [2] of over 100 µM and a TGI [8] of over 100 µM. For the same compound, the TGI [3] was over 100 µM, the TGI [9] was over 100 µM and the TGI [10] was over 100 µM. It also gave a TGI [4] of over 100 µM, a TGI [6] of over 100 µM and a TGI [7] of over 100 µM.
Work on `CC(=O)O[C@H]1CN(S(=O)(=O)c2ccc(C)cc2)C[C@@H]1C1CCCCC1` yielded a TGI [1] of over 100 µM, a TGI [2] of over 100 µM and a TGI [8] of 82.4 µM. The TGI [3] was 49.2 µM, the TGI [10] was 48.9 µM and the TGI [4] was 59 µM. For the same compound, the TGI [5] was over 100 µM, the TGI [6] was over 100 µM and the TGI [7] was 48.3 µM.
`CC(C)(C)OC(=O)NCC(=O)NC1C/C(=N\O)c2sccc21` (stereo not given) was tested, and the TGI [1] was over 100 µM, the TGI [2] was over 100 µM and the TGI [3] was over 100 µM. The TGI [9] was over 100 µM, the TGI [10] was over 100 µM and the TGI [4] was over 100 µM. The TGI [5] was over 100 µM, the TGI [6] was over 100 µM and the TGI [7] was over 100 µM.
For `CN(C)Cc1cc(C(=O)/C=C/c2cccc(Cl)c2)cc(CN(C)C)c1O`, the TGI [1] was 12.7 µM, the TGI [2] was 13.7 µM and the TGI [8] was 18.2 µM. The TGI [3] was 10.9 µM, the TGI [10] was 19.6 µM and the TGI [4] was 17.1 µM. It also gave a TGI [5] of 6.93 µM, a TGI [6] of 19.9 µM and a TGI [7] of 19.9 µM.
Work on `C#CCSc1nc(N)c2ncn(C3OC(COP(=O)(O)O)C(O)C3O)c2n1` (stereo not given) yielded a TGI [1] of over 239 µM, a TGI [2] of over 239 µM and a TGI [8] of over 239 µM. The TGI [3] was over 239 µM, the TGI [9] was over 239 µM and the TGI [10] was over 239 µM. The TGI [4] was over 239 µM, the TGI [5] was over 239 µM and the TGI [7] was over 239 µM.
For `CC(=O)Nc1ccc(C(=O)NN2C(=O)C(Cl)C2c2ccc(O)cc2)cc1` (stereo not given), the TGI [1] was over 100 µM, the TGI [2] was over 100 µM and the TGI [3] was over 100 µM. The TGI [9] was over 100 µM, the TGI [10] was over 100 µM and the TGI [4] was over 100 µM. It also gave a TGI [7] of over 100 µM.
`CCCCc1c2c(nc3c1CCc1cc4cc5c(nc4nc1-3)-c1nc3c(c(CCCC)c1CC5)CCC/C3=C\c1ccccc1)/C(=C/c1ccccc1)CCC2` showed a TGI [1] of over 100 µM, a TGI [2] of over 100 µM and a TGI [3] of over 100 µM. It also gave a TGI [9] of over 100 µM, a TGI [10] of over 100 µM and a TGI [4] of over 100 µM. It also gave a TGI [5] of over 100 µM and a TGI [7] of over 100 µM.
`COc1cc(OC)cc(-c2n/c(=C\c3c(O)[nH]c4ccc(Cl)cc34)cc3c2=Nc2ccccc2-3)c1` showed a GI50 [1] of 6.58 µM, a TGI [1] of 27.7 µM and a GI50 [2] of 1.99 µM. For the same compound, the TGI [2] was 3.99 µM, the GI50 [3] was 1.92 µM and the TGI [3] was 4.34 µM. The GI50 [9] was 21.6 µM, the TGI [9] was 44.7 µM and the GI50 [10] was 22.8 µM. It also gave a TGI [10] of 59.8 µM, a GI50 [4] of 29.3 µM and a TGI [4] of over 100 µM. The GI50 [5] was 2.24 µM, the TGI [5] was 5.59 µM and the GI50 [6] was 4.39 µM. It also gave a TGI [6] of 17 µM, a GI50 [7] of over 100 µM and a TGI [7] of over 100 µM.
Work on `C=CCC1(CC)C(=O)NC(=O)NC1=O` yielded a TGI [1] of over 100 µM, a TGI [2] of over 100 µM and a TGI [3] of over 100 µM. The TGI [9] was over 100 µM, the TGI [10] was over 100 µM and the TGI [4] was over 100 µM. The TGI [5] was over 100 µM and the TGI [7] was over 100 µM.
`COc1cccc(NC(=O)CC(=O)NNCC(=O)Nc2nnc(-c3ccc(N(CCC#N)S(=O)(=O)c4ccccc4)cc3)s2)c1` gave a TGI [1] of over 100 µM, a TGI [2] of over 100 µM and a TGI [8] of over 100 µM. It also gave a TGI [3] of over 100 µM, a TGI [9] of over 100 µM and a TGI [10] of over 100 µM. The TGI [4] was over 100 µM and the TGI [5] was over 100 µM.
`O/N=C1/C2CC3CC1(c1ccccc1)CC(/C3=N/O)/C2=N\O` (stereo not given) showed a TGI [1] of over 100 µM, a TGI [2] of over 100 µM and a TGI [3] of over 100 µM. The TGI [9] was over 100 µM, the TGI [10] was over 100 µM and the TGI [4] was over 100 µM. For the same compound, the TGI [5] was over 100 µM, the TGI [6] was over 100 µM and the TGI [7] was over 100 µM.

From PubChem BioAssay (NCI)
